Experimental data reported in US20230053328A9, “COMBINATION THERAPIES USING CDK INHIBITORS” (Pfizer Inc., priority 2019, published 2023).

Tested on: MC38 syngeneic mouse tumor model
Assay: MC38 syngeneic mouse tumor model, tumor growth inhibition and survival (Example 1)
Type: in vivo
Description: MC38 cells were obtained from American Type Culture Collection (ATCC) and cultured in Roswell Park Memorial Institute (RPMI1640) supplemented with 10% fetal bovine serum (FBS). All cells were maintained in a humidified incubator at 37° C. with 5% carbon dioxide (CO2). Female C57/BL6 mice were obtained from Jackson Laboratories at 8 weeks of age. To generate the syngeneic model, 0.5 million MC38 tumor cells were subcutaneously implanted into the right flank of female C57/BL6 mice. Tumor bearing mice were randomized into six treatment groups based on average tumor sizes of approximately 70 mm^3 per group, on Day 9 post tumor cell implantation. […]
Tumor volumes were measured three times a week. Tumor volume was calculated based on two-dimensional caliper measurement with cubic millimeter volume calculated using the formula (length×width2)×0.5. […] Statistical significance determined using the Holm-Sidak method, with alpha=0.05.

Q: Which “synergy with OX40/4-1BB immune checkpoint modulators (in words)” value (MC38 syngeneic mouse tumor model, example heading) does the source give for `C[C@@]1(O)CCC[C@H]1n1c(=O)c(C(F)F)cc2cnc(NC3CCN(S(C)(=O)=O)CC3)nc21` [PF-06873600, 6-(difluoromethyl)-8-((1R,2R)-2-hydroxy-2-methylcyclopentyl)-2-(1-(methylsulfonyl)piperidin-4-ylamino)pyrido[2,3-d]pyrimidin-7(8H)-one] here?
A: Its value is “Synergizes”.

Q: And the “tumor growth inhibition (in words)” value (MC38 tumors in C57/BL6 mice, Day 27 post-treatment initiation)?
A: Its value is “did not significantly inhibit tumor growth”.
